Patent publication US9049814B2, “Coated seeds and methods of making coated seeds” (VamTech, LLC, priority 2007, dated 2015)

Experiments:
[1] = system: VAM fungi (4 species VAM fungal cocktail) on corn plants; experiment: Percent VAM development on 6-week-old corn plants from coated seed (2006); type: in vivo; details: for % VAM: 6-week-old corn plants, 95 VAM spores, low P; for % VAM, averaged: average across treatments, base VAM level 54% without treatment
Source text: Example 1 describes experimental studies carried out, in spring and summer of 2006 to evaluate the effects of different commercial fungicide seed coatings on VAM development in germinated corn seedlings in the presence and absence of alkali formononetinate. All corn seed coatings were done by Sub-Sahara International, Inc. (now owned by Becker Underwood Inc.) using standard coating procedures. The treater used was an RP-14 rotary seed coating machine manufactured by Sedpell in Canada. Successive applications were made with the fungicides being applied first according to the label instructions; then, when the seeds were dry they were over-coated with the alkali (potassium) formononetinate.
Fungicides were applied as a high viscosity, liquid suspension formulations according to the use directions on the respective labels.
The alkali formononetinate was dissolved in water and Polykote added according to the following ratios by weight: water—70 parts; alkali formononetinate—45 parts; Polykote—20 parts.
Seed germination and VAM development tests were carried out in a greenhouse at the Formosa Agricultural and Environmental Research Center, LaWard, Tex.
Percent VAM development was determined, within 3 weeks of treatment, on five, 6-week-old corn plants (from seeding) per treatment planted in sterile potting soil containing 95 spores of a 4 species VAM fungal cocktail at low P concentration. Originally 10 plants per treatment were installed in 30 ml Seedling® cells and after 10 days, 5 were transplanted into 1 liter containers.

[2] = system: VAM fungi (Glomus etunicatum, Glomus clarum, Entrophospora columbiana, Glomus intraradices) on corn roots; experiment: VAM colonization of corn roots from Myconate over-treated seed (2007); type: in vivo, Zea mays L.; details: for % Root colonization by VAM: Mean (%) / % Root colonization by VAM in 5 replicates: A / % Root colonization by VAM in 5 replicates: B / % Root colonization by VAM in 5 replicates: C / % Root colonization by VAM in 5 replicates: D / % Root colonization by VAM in 5 replicates: E: variety BH, fungicide/insecticide pre-treated seed; for % Root colonization by VAM: Mean (%): mean of 5 replicates; for % Root colonization by VAM in 5 replicates: A: replicate A; for % Root colonization by VAM in 5 replicates: B: replicate B; for % Root colonization by VAM in 5 replicates: C: replicate C; for % Root colonization by VAM in 5 replicates: D: replicate D; for % Root colonization by VAM in 5 replicates: E: replicate E
Experimental: Methods: This study was conducted between February-April 2007 in a greenhouse at the Formosa Agricultural and Environmental Research Center using hybrid corn plants (Zea mays L.) var. Beck's Hybrids 5959 (HB) and Dow/Mycogen 2D675 (PG). The hybrid corn seed was purchased from commercial sources and was pre-treated with one of two fungicidal/insecticidal seed treatments. Variety HB was commercially treated with Beck's “SureGro” containing fludioxonil and mefenoxam fungicides; together with Agriliance Actellic 5E (a.i. pirimiphos-methyl) insecticide, according to label directions. Variety PG was commercially treated with Syngenta “Cruiser Extreme” (a.i. fludioxonil, mefenoxam and azoxystrobin fungicides plus thiamethoxam insecticide) according to label directions.
Subsequently, the corn seed was over-treated with one of two formulations of Myconate. One formulation contained 98% potassium formononetinate (kf) together with Polykote polymer; and the other, 100% acid formononetin (afP) together with Polykote polymer, wetting agent, colorant, and preservative. The kf treatments, 1 through 6 in Table 6, contained varying amounts of potassium formononetinate and were applied using a lab bench apparatus. The afP treatments, 18 and 19, were applied using commercial equipment. Treated HB seed received the kf treatment of potassium formononetinate at rates of 0.2 to 5.6 mg/seed. Treated PG seed received the afP treatment of formononetin at single rate of 0.8 mg/seed. The concentration of formononetin per seed was calculated by gravimetric measurement of the coating applied to the seed.
The controls for the kf treatments involved two seed samples, 7 and 8, both untreated with kf and one of these was also untreated with VAM spores. The control for the afP treatment was treated with afP but was not treated with VAM. The various treatments, including the addition of VAM spores to the growing medium prior to sowing for VAM development studies are described schematically in Table 6.
The colonization rate of VAM fungi on corn roots was determined using methods commonly used to quantify vesicular arbuscular mycorrhiza (Kormanik PP and AC McGraw (1984) Quantification of vesicular-arbuscular mycorrhizae in plant roots. In N. C. Schenck (ed.) Methods and Principles of Mycorrhizal Research. American Phytopathological Society, St. Paul, Minn.; Phillips J M and D S Hayman (1970) Improved procedures for clearing roots and staining parasitic and vesicular-arbuscular mycorrhizal fungi for rapid assessment of infection. Trans. Br. Mycol. Soc. 55:158-160; Read D J, H K Koncheki and J Hodgson (1976) Vesicular-arbuscular mycorrhiza in natural vegetation systems. New Phytol. 77:641-653). Speedling tray cells (30 ml volume) were partially (⅔) filled with autoclaved Miraco-III potting mix and inoculated with 95 spores of VAM cocktail (Lot No. 12-14-04). The VAM cocktail contained spores of Glomus etunicatum, Glomus clarum, Entrophospora columbiana and Glomus intraradices. The cocktail was prepared by mixing dry-sieved (179 microns) spore preparations of G. entunicatum, G. clarum and E. columbiana with dry root pieces containing the intraradical spores of G. intraradices. Each fungal species was individually produced and processed using a pot culture technique. The cells were then filled with Miraco-III mix. After sowing, (one seed per cell, 9-20 seed per treatment), the trays were incubated under continuous light at room temperature. Ten days after sowing, five seedlings from each experimental treatment and 10 from two untreated controls (Treatments 7 and 8) were randomly selected and transplanted to 1-liter cups containing a sand-based medium. The cups were incubated in a greenhouse and a low phosphorus (P) nutrient solution (1.175 ppm) was applied to all treatments 1-2 times per week as needed to maintain proper soil moisture. […]

[3] = system: VAM-infected roots of oats; details: thereby decreasing phosphorus uptake; cited from earlier work
[4] = system: mycorrhizal colonization of Leucaena leucocephala; details: in vivo; cited from earlier work
[5] = system: Glomus mosseae; details: cited from earlier work

COc1ccc(-c2coc3cc([O-])ccc3c2=O)cc1.[K+] [Myconate kf, potassium formononetinate]
% VAM ([1]; 0.5 mg alkali formononetinate/seed over-coated on the named fungicide (or none)): 61% | % VAM, averaged ([1]; 0.5 mg alkali formononetinate/seed): 67% | % VAM ([1]; 1.0 mg alkali formononetinate/seed over-coated on the named fungicide (or none)): 66% | % VAM, averaged ([1]; 1.0 mg alkali formononetinate/seed): 73% | increase of VAM colonization ([2]; 1.6 mg/seed): approximately 30% | % Root colonization by VAM: Mean (%) ([2]; Treatment 1: 0.2 mg/seed kf): 41.0% | % Root colonization by VAM in 5 replicates: A ([2]; Treatment 1: 0.2 mg/seed kf): 40% | % Root colonization by VAM in 5 replicates: B ([2]; Treatment 1: 0.2 mg/seed kf): 47% | % Root colonization by VAM in 5 replicates: C ([2]; Treatment 1: 0.2 mg/seed kf): 41% | % Root colonization by VAM in 5 replicates: D ([2]; Treatment 1: 0.2 mg/seed kf): 39% | % Root colonization by VAM in 5 replicates: E ([2]; Treatment 1: 0.2 mg/seed kf): 38% | % Root colonization by VAM: Mean (%) ([2]; Treatment 2: 0.4 mg/seed kf): 43.6% | % Root colonization by VAM in 5 replicates: A ([2]; Treatment 2: 0.4 mg/seed kf): 44% | % Root colonization by VAM in 5 replicates: B ([2]; Treatment 2: 0.4 mg/seed kf): 48% | % Root colonization by VAM in 5 replicates: C ([2]; Treatment 2: 0.4 mg/seed kf): 45% | % Root colonization by VAM in 5 replicates: D ([2]; Treatment 2: 0.4 mg/seed kf): 40% | % Root colonization by VAM in 5 replicates: E ([2]; Treatment 2: 0.4 mg/seed kf): 41% | % Root colonization by VAM: Mean (%) ([2]; Treatment 3: 0.8 mg/seed kf): 43.8% | % Root colonization by VAM in 5 replicates: A ([2]; Treatment 3: 0.8 mg/seed kf): 45% | % Root colonization by VAM in 5 replicates: B ([2]; Treatment 3: 0.8 mg/seed kf): 42% | % Root colonization by VAM in 5 replicates: C ([2]; Treatment 3: 0.8 mg/seed kf): 47% | % Root colonization by VAM in 5 replicates: D ([2]; Treatment 3: 0.8 mg/seed kf): 45% | % Root colonization by VAM in 5 replicates: E ([2]; Treatment 3: 0.8 mg/seed kf): 40% | % Root colonization by VAM: Mean (%) ([2]; Treatment 4: 1.6 mg/seed kf): 32.0% | % Root colonization by VAM in 5 replicates: A ([2]; Treatment 4: 1.6 mg/seed kf): 30% | % Root colonization by VAM in 5 replicates: B ([2]; Treatment 4: 1.6 mg/seed kf): 39% | % Root colonization by VAM in 5 replicates: C ([2]; Treatment 4: 1.6 mg/seed kf): 28% | % Root colonization by VAM in 5 replicates: D ([2]; Treatment 4: 1.6 mg/seed kf): 35% | % Root colonization by VAM in 5 replicates: E ([2]; Treatment 4: 1.6 mg/seed kf): 28% | % Root colonization by VAM: Mean (%) ([2]; Treatment 5: 4.0 mg/seed kf): 25.0% | % Root colonization by VAM in 5 replicates: A ([2]; Treatment 5: 4.0 mg/seed kf): 27% | % Root colonization by VAM in 5 replicates: B ([2]; Treatment 5: 4.0 mg/seed kf): 21% | % Root colonization by VAM in 5 replicates: C ([2]; Treatment 5: 4.0 mg/seed kf): 31% | % Root colonization by VAM in 5 replicates: D ([2]; Treatment 5: 4.0 mg/seed kf): 24% | % Root colonization by VAM in 5 replicates: E ([2]; Treatment 5: 4.0 mg/seed kf): 22% | % Root colonization by VAM: Mean (%) ([2]; Treatment 6: 5.6 mg/seed kf): 18.2% | % Root colonization by VAM in 5 replicates: A ([2]; Treatment 6: 5.6 mg/seed kf): 19% | % Root colonization by VAM in 5 replicates: B ([2]; Treatment 6: 5.6 mg/seed kf): 12% | % Root colonization by VAM in 5 replicates: C ([2]; Treatment 6: 5.6 mg/seed kf): 25% | % Root colonization by VAM in 5 replicates: D ([2]; Treatment 6: 5.6 mg/seed kf): 18% | % Root colonization by VAM in 5 replicates: E ([2]; Treatment 6: 5.6 mg/seed kf): 17% | effect on VAM colonization ([2]; at or above 4.0 mg/seed): decreased VAM colonization | increase of VAM colonization ([2]; commercial use rate (0.8 mg/seed), over the untreated control (24.2% VAM colonization)): 81%

O=[N+]([O-])c1c(Cl)c(Cl)c(Cl)c(Cl)c1Cl [PCNB, pentachloronitrobenzene]
VAM-infected root length of oats [3]: decreased

N#Cc1c(Cl)c(Cl)c(Cl)c(C#N)c1Cl [chlorothalonil]
mycorrhizal colonization, phosphorus concentration, and dry matter yields of Leucaena leucocephala [4]: decrease

CCCCNC(=O)n1c(NC(=O)OC)nc2ccccc21 [benomyl]
Growth of the vesicular arbuscular mycorrhizal fungus Glomus mosseae [5]: affected
